Source: patent US6541463B1, “Inhibitors of type 5 and type 3 17β-hydroxysteroid dehydrogenase and methods for their use” (Endorecherche, Inc., priority 1998, dated 2003)
Read-outs that look alike come from different tables or passages of the source.

Tests used:
[1] = test system: Shionogi mouse mammary carcinoma cells; experiment: Antiandrogenic activity: inhibition of DHT-induced proliferation of Shionogi cells; assay type: cell-based; conditions: for IC50: Mus musculus
Outline: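 Androgen-sensitive Shionogi mouse mammary carcinoma cells, 20 000/well, were grown 10–12 days in charcoal-stripped serum with increasing agent concentrations in triplicate, with medium changed every 3–4 days. Cell number was counted directly, and ED50 was derived by least-square regression.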

[2] = test system: Shionogi mouse mammary carcinoma cells; experiment: Androgenic activity: stimulation of proliferation of Shionogi cells; assay type: cell-based
Outline: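 Shionogi mouse mammary carcinoma cells, at 20 000 cells/well in medium with 5% charcoal-stripped FCS, were grown 10–12 days with the inhibitor at 10^−7 M and 10^−6 M in triplicate. Medium was changed every 3–4 days. Proliferation was read by Coulter counting and given as % stimulation.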

[3] = Table 4′, DHT-induced proliferation, E^−6 (10^−6 M)
[4] = Table 4′, DHT-induced proliferation, E^−7

SMILES	Antiandrogenic Activity Shionogi, DHT E^−6 [1, 3] [%]	Antiandrogenic Activity Shionogi, DHT E^−7 [1, 4]	Androgenic Activity Shionogi, Basal E^−6 ([2]; Table 4′, E^−6) [%]	Androgenic Activity Shionogi, Basal E^−7 ([2]; Table 4′, E^−7)	other results
COc1cc2c(cc1C)C1CCC3(C)C(CCC34CCC(C)(C)C(=O)O4)C1CC2 (stereo not shown) [EM-1412-CS]	−60	0%	−11	0%	–
COCCOc1cc2c(cc1F)C1CCC3(C)C(CCC34CCC(C)(C)C(=O)O4)C1CC2 (stereo not shown) [EM-1393-CS]	−104	27%	−10	88%	–
CCC[C@@H]1CC2C3C=CC4=CC(=O)CC[C@]4(C)C3CC[C@]2(C)C1=O (stereo partly shown) [EM-1097]	–	–	–	–	Antiandrogenic Activity Shionogi, DHT E^−6 ([1]; with DHT, E^−6): −71; Antiandrogenic Activity Shionogi, DHT E^−7 ([1]; with DHT, E^−7): −3; Androgenic Activity Shionogi, Basal E^−6 ([2]; E^−6): −12; Androgenic Activity Shionogi, Basal E^−7 ([2]; E^−7): 18
COCCOc1cc2c(cc1C(N)=O)C1CC[C@@]3(C)C(CC[C@@]34CCC(C)(C)C(=O)O4)C1CC2 (stereo partly drawn) [EM-1424, 2-Carbamoyl-3-(2″-methoxyethyloxy)-1,3,5(10)-estratrien 17(R)-spiro-2′-(5′,5′-dimethyl-6′-oxo)tetrahydropyran]	−58	−22%	−17	0%	–
CN1C(=O)C=C[C@]2(C)C3CC[C@@]4(C)C(CC[C@@]45CCCC(=O)O5)C3CCC12 (stereo partly shown) [EM-1122-CS]	–	–	–	–	IC50 ([1]; Table 5, bracketed value, read-out: Antiandrogenic Activity Shlonogl, DHT [IC50 (nM)]): 447 nM; Antiandrogenic Activity Shlonogl, DHT E^−6 ([1]; Table 5, DHT, E^−6): −74%; Antiandrogenic Activity Shlonogl, DHT E^−7 ([1]; Table 5, DHT, E^−7): −14%; Androgenic Activity Shlonogl, Basal E^−6 ([2]; Table 5 column 9, E^−6): −11%; Androgenic Activity Shlonogl, Basal E^−7 ([2]; Table 5 column 9, E^−7): 0%
CC1(C)CCC2(CCC3C4CCc5cc(O)c(C#N)cc5C4CCC32C)OC1=O (stereo not shown) [EM-01645]	−10	−6%	35	−5%	–
C[C@]12CCC3c4ccc(O)cc4CCC3C1CC[C@@]21CCCC(=O)O1 (stereo partly drawn) [EM-919, 1,3,5(10)-estratrien-3-ol-17(R)-spiro-2′(6′-oxo)tetrahydropyran]	−95	+38%	−17	+73%	IC50 ([1]; Table 4′, bracketed values, read-out: Antiandrogenic Activity Shionogi, DHT [IC50 (nM)]): 609 nM
CCC(=O)O[C@]1(C(C)=O)CCC2C3C=C(C)C4=CC(=O)C[C@H](C)[C@]4(C)C3CC[C@@]21C (stereo partly shown) [CS-243]	–	–	–	–	Antiandrogenic Activity Shionogi, DHT ([1]; DHT, E^−6): −129; Antiandrogenic Activity Shionogi, DHT ([1]; DHT, E^−7): −102; IC50 ([1]; read-out: Antiandrogenic Activity Shionogi, DHT [IC50]): 11 nM; Androgenic Activity Shionogi, Basal ([2]; E^−6): −23; Androgenic Activity Shionogi, Basal ([2]; E^−7): −13
CC12CCC3c4ccc(O)cc4CCC3C1CCC21CC=CC(=O)O1 [PB-132-140, 3-hydroxy-1,3,5(10)-estratrien-17(R)-spiro-2′-(4′,5′-dihydro-6′-oxo)pyran]	0	16%	−18	30%	–
CC1CCC2(CCC3C4CCc5cc(O)c([N+](=O)[O-])cc5C4CCC32C)OC1=O [EM-1126, 2-Nitro-1,3,5(10)-estratrien-3-ol-17(R)-spiro-2′-(5′-methyl-6′-oxo)tetrahydropyran]	−49	0%	−8	0%	–
